{"source": "patent US8399466B2", "about": "“Composition for regenerative treatment of cartilage disease” (Mitsubishi Tanabe Pharma Corporation, priority 2001, dated 2013)", "system": "gonarthrosis induced by partial excision of medial meniscus/abscission of bilateral collateral ligaments", "experiment": "Regenerative healing effects on gonarthrosis induced by partial excision of medial meniscus/abscission of bilateral collateral ligaments", "type": "in vivo, rabbit", "details": "1 μg in microsphere of Example 7-(1), intra-articular two and six weeks after operation; ten weeks after operation; control 18.86 ± 2.03", "procedure": "Japanese White rabbits (male; 10-week-old; 7 rabbits/group) were housed for 16 days at room temperature (23±2° C.) and 55±15% humidity. During the housing period, the rabbits were free to access commercially available food (Oriental Bio Service; LRC4).\nUnder ether anesthesia, the right knee joint of each rabbit was excised and ½ portion of medial meniscus was isolated with double-edged small straight scissors. The bilateral collateral ligaments were also cut. After the operation, muscle and epidermal tissues were sutured and sterilized. Two weeks from the operation, under ether anesthesia, each rabbit of the test group (7 rabbits/group) was administered intra-articularly the drug-containing microsphere prepared in Example 7-(1), which contains 1 μg of Compound (2). The rabbit of the control group (7 rabbits/group) received the same amount of drug-free microsphere prepared in Control Example 2. […]\nAfter wiping off the excess India Ink, the overhead surface image of the formalin-fixed tibial proximal end was imported into an analyzer, Image Analyzer (IMAGING RESEARCH, MICD imaging analyzer), with a stereomicroscope (OLYMPUS OPTICAL Co., Ltd. model SZX12-2111). […] The gross medial area was also measured and the percentage (%) (the degenerated area rate) of the degenerated medial area in the gross medial area was calculated."}
{"smiles": "CCOc1cc2cc(CO)c(CO)c(-c3ccnc(-n4nc(-c5cccnc5)c5ccccc5c4=O)c3)c2cc1OCC", "note": "[Compound (2)]", "values": [{"measurement": "Degenerated Area Rate (%)", "value": "10.16 ± 1.35", "unit": "%"}]}
